Laboratory results taken from patent publication US10870635B2, “Compounds and their use as BACE1 inhibitors” (ALLGENESIS BIOTHERAPEUTICS, INC., priority 2015, dated 2020).
Read-outs that look alike come from different tables or passages of the source.

Legend:
[1] = molecular target: Human recombinant cathepsin D (Homo sapiens (Human), UniProt P07339); assay: Cathepsin D activity assay; format: biochemical; details: read-out: CatD IC50
Method: The development of a CatD activity assay is used to determine any potential cross reactivity for compounds selected from the β-secretase activity assay and to determine the selectivity to BACE1 inhibition. The CatD activity is reported for assessing target selectivity ratio (CatD IC50/BACE1 IC50).
The reagents for the cathepsin D assay were prepared as follows.
Human recombinant cathepsin D stored frozen in 2.0 μl aliquots was thawed and 42 μl of enzyme buffer (0.1M NaOAC, 0.2 M NaCl, pH 3.5) was added and incubated at 37° C. for 30 minutes. After 30 minutes the enzyme was further diluted to a final volume of 4.4 ml in enzyme buffer containing 5.0 mM DTT for immediate use in the cathepsin D assay.
The 7-methoxycoumarin-labeled peptide substrate (ES010) for cathepsin D was supplied as a 6.2 mM stock in DMSO. For use in the cathepsin D assay, the 6.2 mM stock was diluted to a 1.55 mM stock with DMSO. The 1.55 mM peptide stock in DMSO was further diluted 1:100 in reaction buffer (0.1M NaOAC, 0.2M NaCl, 0.1% Tween 20, 5.0 mM DTT, pH3.5) to create a 15.5 μM stock for use in the assay.
DMSO without compound served as a DMSO vehicle control for the cathepsin D assay. For each test compound, 30 μl of each dilution was pipetted into a separate well of a 96-well polypropylene plate. This polypropylene plate was labeled as the DMSO dilution plate and a plate map of test compound locations was made.
Test compounds from the DMSO dilution plate require a 1:100 dilution into reaction buffer before they can be added to the cathepsin D assay plate. To accomplish the 1:100 dilution of test compounds, 2.0 μl of each test compound at each concentration was pipetted from the DMSO dilution plate (using a multi-channel pipette calibrated to accurately dispense a 2.0 μl volume) into a new 96-well polypropylene plate using the plate map created for the DMSO dilution plate. This 96-well plate served as the inhibitor dilution plate. Next, 198 μl of reaction buffer was pipetted into each well of the inhibitor dilution plate (using a multi-channel pipette calibrated for accurate delivery of a 198 μl volume) and the pipetted test compound mixed by gentle up and down pipetting.
A1.0 mM stock of pepstatin A was made in DMSO and aliquotted into 5.0 μl samples for freezing and storage at −20° C. Upon thawing, 45 μl of DMSO (1:10 dilution) was added to create a 100 μM stock of pepstatin A in DMSO. The 100 μM Pepstatin A stock was further diluted 1:10 with DMSO to create a 10 μM stock in DMSO. […]
The assay plate was placed into a fluorescent plate reader with the excitation wavelength set at 320 nm and the emission wavelength set at 405 nm. Readings were collected every minute over a 30 minute collection period.

[2] = test system: cellular production of amyloid β peptide (Aβ40) in 7PA2 CHO cells; assay: Cell amyloid-beta production assay (MSD electrochemiluminescence immunoassay); format: cell-based; details: 12 hours incubation, read-out: Cell Abeta40 IC50
Description: Amyloid-β (Aβ) is a 33-42-amino acid post-proteolytic peptide generated as the result of the sequential cleavage of amyloid precursor protein (APP) by BACE1 and γ-secretase. Substantial evidence points to aggregation and deposition of certain isoforms of amyloid β peptide in the brain being causal to neurodegeneration and dementia typical of AD. There are two major isoforms of Aβ which are monitored as a biomarker to gain early read on Aβ aggregation: Aβ340 and Aβ342. Increased extracellular accumulation of amyloid β peptide results in the formation of amyloid β peptide oligomers, cerebral amyloid plaques, neurodegeneration, and ultimately brain atrophy, all of which play a pivotal role in AD neuropathological hallmarks.
The reagents for the cell amyloid beta production assay were prepared as follows.
7PA2 CHO cells (licensed from Dr. Dennis Selkoe's laboratory) were plated into 96-well plates at a density of 50,000 cells per […] complete medium (DMEM medium containing 10% fetal bovine serum, L-glutamine, penicillin/streptomycin and 200 μg/ml of G418). Cells were incubated for 16-18 hours in complete medium and the culture medium was aspirated and discarded. Fresh complete medium containing test articles or positive control, LY2886721, within drug concentration range from 0.01 to 100 nM or complete medium only (controls) was added for 12 hours, and the cell culture medium was assayed directly or following a dilution with complete cell culture medium and frozen at −80° C. until it could be assayed for Aβ38, Aβ40 and Aβ42 content using an MSD multiplex electrochemiluminescence immunoassay.
In the Meso Scale Discovery electrochemiluminescence immunoassay, on a block plate, add 150 μL of Diluent 35 to each well, seal the plate with an adhesive plate seal and incubate with shaking for 1 hour at room temperature. Wash and then add detection antibody solution and samples. Wash the plate 3 times with at least 150 μL/well of wash buffer. […] Add 150 μL of 2× Read Buffer T to each well. Read the plate on the MSD imager. No incubation in read buffer is required before reading the plate. […]

[3] = molecular target: pepsin (activated recombinant human pepsinogen A) (Homo sapiens (Human), UniProt P0DJD9); assay: Pepsin activity assay; format: biochemical
pepsin (activated recombinant human pepsinogen A), sequence (P0DJD9 63-388): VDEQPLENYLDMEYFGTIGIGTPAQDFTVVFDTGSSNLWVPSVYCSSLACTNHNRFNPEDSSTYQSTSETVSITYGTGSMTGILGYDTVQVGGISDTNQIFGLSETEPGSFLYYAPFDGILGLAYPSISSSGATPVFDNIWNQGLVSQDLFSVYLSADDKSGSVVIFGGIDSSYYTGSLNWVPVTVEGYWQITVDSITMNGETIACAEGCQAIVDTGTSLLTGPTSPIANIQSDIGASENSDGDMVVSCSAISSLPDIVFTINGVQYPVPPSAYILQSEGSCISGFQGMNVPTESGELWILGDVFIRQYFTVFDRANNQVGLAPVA
Method: 30 mM stocks of the experimental inhibitor compounds were prepared in DMSO. A 10 mM concentration of the inhibitor was prepared by diluting the 30 mM stock 3-fold in DMSO (30 μl of the [30 mM]:60 μl DMSO). 10-fold serial dilutions of 10 mM and 30 mM stocks were made on a dilution plate..
The pepstatin A inhibitor was received from Tocris Bioscience as 10 mg of lyophilized powder. DMSO was used to reconstitute the powder to a 10 mM concentration, which was aliquoted and stored at −20° C. A 40 μl volume of the 10 mM stock was thawed before use. 10-fold serial dilutions of 10 mM and 3 mM stocks were made in DMSO on a dilution plate.
Using a multichannel pipette, take a 2 μl volume of the diluted samples from the dilution plate into a new polypropylene 96-well plate. […]
After the enzyme addition, the substrate was added to each well in 50 μl volumes. […] The plate was immediately sealed and placed on a shaker set to 350 rpm for approximately 30 sec prior to reading in the Polar Star plate reader at room temperature with the excitation wavelength set at 320 nm, the emission wavelength set at 405 nm. Readings were taken every 41 seconds for approximately 25 minutes.
The selected BACE1 inhibitors in accordance with examples of the invention were then determined for Pepsin activity and target selectivity ratio (Pepsin IC50/BACE1 IC50).

[4] = molecular target: BACE1 (recombinant β-secretase enzyme) (Homo sapiens (Human), UniProt P56817); assay: AnaSpec BACE1 fluorescent assay (beta-secretase activity assay); format: biochemical
BACE1 (recombinant β-secretase enzyme), sequence (P56817 46-501): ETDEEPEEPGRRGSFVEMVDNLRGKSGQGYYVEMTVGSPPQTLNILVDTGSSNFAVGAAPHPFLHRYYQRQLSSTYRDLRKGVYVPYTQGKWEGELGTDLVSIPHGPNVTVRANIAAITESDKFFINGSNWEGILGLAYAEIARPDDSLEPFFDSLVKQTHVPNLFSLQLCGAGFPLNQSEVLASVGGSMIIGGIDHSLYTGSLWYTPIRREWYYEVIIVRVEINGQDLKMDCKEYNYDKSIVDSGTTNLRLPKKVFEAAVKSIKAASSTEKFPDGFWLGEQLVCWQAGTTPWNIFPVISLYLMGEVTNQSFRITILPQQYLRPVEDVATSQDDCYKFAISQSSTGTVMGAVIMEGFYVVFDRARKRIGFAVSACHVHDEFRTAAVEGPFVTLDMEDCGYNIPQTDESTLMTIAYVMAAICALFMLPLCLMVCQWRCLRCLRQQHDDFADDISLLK
Method: A BACE1 activity assay kit from AnaSpec (Fremont, Calif.) was used to determine the potency of the selected BACE1 inhibitors by AnaSpec BACE1 fluorescent assay. The recombinant β-secretase enzyme was diluted 1:200 in 1× assay buffer (1 part of 1× assay buffer and 1 part of TBS containing 0.1% Tween 20). The enzyme was added in a volume of 40 μl to each well of a black 96-well micro plate.
The BACE1 inhibitors were serially diluted into DMSO from their 10 mM stock concentrations in DMSO. The serially diluted inhibitors were diluted 1:100 into 1× assay buffer in a 96-well polypropylene plate (assay dilution plate). The final concentration of the BACE1 inhibitor tested was 300 nM, 100 nM, 30 nM, 10 nM, 3 nM, 1 nM 0.3 nM, and 0.00 nM. Dose responses for inhibitors were run in duplicate.
A volume of 10 μl of the inhibitor from the assay dilution plate, a control inhibitor LY2886721 or inhibitor vehicle was then added to each well of the black 96-well micro plate containing BACE1.
(§1) To each well of the black 96-well micro plate, 50 μl of the β-secretase substrate (Hylite Fluor 488) diluted 1:100 using assay buffer was added. The reagents were mixed gently and the assay plate was placed into a POLARstar fluorescent plate reader with excitation wavelength set at 485 nm and the emission wavelength set at 520 nm. The plate reader was set to take readings every 5 minutes for up to 30 minutes or a 30 minute endpoint reading was used.
An appropriate integrated first-order rate equation was used to fit the data accumulated over a 30-40 minute collection period.

recombinant BACE2 = recombinant BACE2 (Homo sapiens (Human), UniProt Q9Y5Z0); assay: AnaSpec BACE2 fluorescent assay; format: biochemical
recombinant BACE2, sequence (Q9Y5Z0 63-518): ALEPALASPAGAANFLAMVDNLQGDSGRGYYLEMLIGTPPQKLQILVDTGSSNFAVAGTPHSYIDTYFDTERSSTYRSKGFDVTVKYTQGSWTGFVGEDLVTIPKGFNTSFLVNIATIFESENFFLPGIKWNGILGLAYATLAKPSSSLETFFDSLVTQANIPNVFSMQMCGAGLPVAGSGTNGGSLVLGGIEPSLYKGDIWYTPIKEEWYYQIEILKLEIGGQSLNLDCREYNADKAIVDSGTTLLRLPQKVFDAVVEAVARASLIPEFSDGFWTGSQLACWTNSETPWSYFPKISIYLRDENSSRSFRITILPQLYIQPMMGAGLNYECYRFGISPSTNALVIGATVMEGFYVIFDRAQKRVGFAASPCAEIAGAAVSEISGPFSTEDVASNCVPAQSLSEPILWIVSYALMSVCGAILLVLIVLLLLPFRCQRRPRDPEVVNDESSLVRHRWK
Method: A BACE2 activity assay kit from AnaSpec (Fremont, Calif.) was used to determine the potency of the selected compounds by AnaSpec BACE2 fluorescent assay. To each well of a black 96-well micro plate, 50 μl of the β-secretase substrate (Hylite Fluor 488) diluted 1:100 using assay buffer was first added.
The compounds were serially diluted (1:2) into DMSO from their 10 mM stock concentrations in DMSO. The serially diluted inhibitors were diluted 1:100 into 1× assay buffer in a 96-well polypropylene plate (assay dilution plate). The final concentration of these compounds tested was 300 nM, 150 nM, 75 nM, 37.5 nM, 18.75 nM, 9.375 nM, 4.688 nM, 2.344 nM, 1.172 nM, 0.586 nM, and 0.293 nM.
A volume of 10 μl of the inhibitor from the assay dilution plate, a control inhibitor LY2886721 or inhibitor vehicle was then added to each well of the black 96-well micro plate.
The recombinant BACE2 was diluted in an assay buffer and the final BACE2 was 10.6 nM. The enzyme was added in a volume of 40 μl to each well of a black 96-well micro plate.
as §1, with “The” for “To each well of the black 96-well micro plate, 50 μl of the β-secretase substrate (Hylite Fluor 488) diluted 1:100 using assay buffer was added. The”
An appropriate integrated first-order rate equation was used to fit the data accumulated over a 30-40 minute collection period. Dose responses for inhibitors were run in duplicate.

Human recombinant cathepsin D, sequence (P07339 65-412): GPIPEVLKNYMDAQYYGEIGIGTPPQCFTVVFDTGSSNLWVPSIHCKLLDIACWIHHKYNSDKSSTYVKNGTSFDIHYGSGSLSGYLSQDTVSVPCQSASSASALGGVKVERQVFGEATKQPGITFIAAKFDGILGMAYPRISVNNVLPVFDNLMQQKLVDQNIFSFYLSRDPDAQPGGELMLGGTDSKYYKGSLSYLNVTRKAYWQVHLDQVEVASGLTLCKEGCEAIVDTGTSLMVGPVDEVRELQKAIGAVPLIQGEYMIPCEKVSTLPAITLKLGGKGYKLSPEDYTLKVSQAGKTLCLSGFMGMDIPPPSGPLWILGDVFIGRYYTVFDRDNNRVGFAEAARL

Compound | IC50 [1] [nM] | IC50 ([2]; Cricetulus griseus, CHO, 12 h) [nM] | IC50 [3] [nM] | IC50 [4] [nM] | IC50 (recombinant BACE2) [nM] | IC50 [2] [nM]
CC#Cc1ccc2sc3ccc([C@]4(C)CS(=O)(=O)C(C)(C)C(N)=N4)cc3c2c1 [Example 103, (R)-5-Amino-3,6,6-trimethyl-3-(8-(prop-1-yn-1-yl)dibenzo[b,d]thiophen-2-yl)-3,6-dihydro-2H-1,4-thiazine 1,1-dioxide] | 17200 | 13 | 3140 | 39 | 12 | –
CC#Cc1ccc2sc3cc(F)c([C@]4(C)CS(=O)(=O)C(C)(C)C(=N)N4)cc3c2c1 [Example 109, (R)-5-Amino-3-(3-fluoro-8-(prop-1-yn-1-yl)dibenzo[b,d]thiophen-2-yl)-3,6,6-trim ethyl-3,6-dihydro-2H-1,4-thiazine 1,1-dioxide] | 10800 | 5.5 ± 1.95 | 4380 | 25 | 16 | 5
